Earlier results, collected in patent US20190055521A1, “Methods Of Propagating Rhinovirus C In Previously Unsusceptible Cell Lines” (Wisconsin Alumni Research Foundation, priority 2014, published 2019).
Read-outs that look alike come from different tables or passages of the source.

Experiments:
RV-A [1] = conditions: unmodified HeLa cells; drug added to cells before infection; previously documented
RV-B [2] = conditions: unmodified HeLa cells; drug added to cells before infection; previously documented
RV-A [3] = conditions: unmodified HeLa cells; previously documented
RV-B [4] = conditions: unmodified HeLa cells; previously documented

SMILES: CCOC(=O)/C=C/[C@H](C[C@@H]1CCNC1=O)NC(=O)[C@@H](CC(=O)[C@@H](NC(=O)c1cc(C)on1)C(C)C)Cc1ccc(F)cc1 [Rupintrivir]
- inhibition of RV-A (RV-A [1]): inhibition
- inhibition of RV-B (RV-B [2]): inhibition

SMILES: Cc1cc(CCCOc2c(C)cc(-c3noc(C(F)(F)F)n3)cc2C)on1 [Pleconaril]
- inhibition of RV-A (RV-A [3]): inhibition
- inhibition of RV-B (RV-B [4]): inhibition
